Laboratory results reported in US10479795B2 (Incyte Corporation, priority 2016, dated 2019).
pIC50: −log10 of the molar value. Where a name gives a salt, the structure may show the parent alone. Read-outs that look alike come from different tables or passages of the source.

Legend:
[1] = target: PI3Kγ (p110γ) Recombinant Human Protein (Homo sapiens (Human), UniProt P48736); experiment: PI3K-γ Scintillation Proximity Assay; type: biochemical; conditions: read-out: PI3Kγ IC50
In short: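 Radiometric SPA readout: […] bound to WGA beads after overnight shaking, IC50 derived from % activity of DMSO control. Reaction used human p110γ, 2 μM ATP, 20 μM PIP2, pH 6.7 MOPS buffer with MgCl2, DTT, CHAPS, 2% DMSO, room temperature.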

[2] = target: PI3Kδ (p110δ/p85α) Recombinant Human Protein (Homo sapiens (Human), UniProt O00329); experiment: PI3Kδ Scintillation Proximity Assay; type: biochemical
PI3Kδ (p110δ/p85α) Recombinant Human Protein, sequence (O00329 whole entry): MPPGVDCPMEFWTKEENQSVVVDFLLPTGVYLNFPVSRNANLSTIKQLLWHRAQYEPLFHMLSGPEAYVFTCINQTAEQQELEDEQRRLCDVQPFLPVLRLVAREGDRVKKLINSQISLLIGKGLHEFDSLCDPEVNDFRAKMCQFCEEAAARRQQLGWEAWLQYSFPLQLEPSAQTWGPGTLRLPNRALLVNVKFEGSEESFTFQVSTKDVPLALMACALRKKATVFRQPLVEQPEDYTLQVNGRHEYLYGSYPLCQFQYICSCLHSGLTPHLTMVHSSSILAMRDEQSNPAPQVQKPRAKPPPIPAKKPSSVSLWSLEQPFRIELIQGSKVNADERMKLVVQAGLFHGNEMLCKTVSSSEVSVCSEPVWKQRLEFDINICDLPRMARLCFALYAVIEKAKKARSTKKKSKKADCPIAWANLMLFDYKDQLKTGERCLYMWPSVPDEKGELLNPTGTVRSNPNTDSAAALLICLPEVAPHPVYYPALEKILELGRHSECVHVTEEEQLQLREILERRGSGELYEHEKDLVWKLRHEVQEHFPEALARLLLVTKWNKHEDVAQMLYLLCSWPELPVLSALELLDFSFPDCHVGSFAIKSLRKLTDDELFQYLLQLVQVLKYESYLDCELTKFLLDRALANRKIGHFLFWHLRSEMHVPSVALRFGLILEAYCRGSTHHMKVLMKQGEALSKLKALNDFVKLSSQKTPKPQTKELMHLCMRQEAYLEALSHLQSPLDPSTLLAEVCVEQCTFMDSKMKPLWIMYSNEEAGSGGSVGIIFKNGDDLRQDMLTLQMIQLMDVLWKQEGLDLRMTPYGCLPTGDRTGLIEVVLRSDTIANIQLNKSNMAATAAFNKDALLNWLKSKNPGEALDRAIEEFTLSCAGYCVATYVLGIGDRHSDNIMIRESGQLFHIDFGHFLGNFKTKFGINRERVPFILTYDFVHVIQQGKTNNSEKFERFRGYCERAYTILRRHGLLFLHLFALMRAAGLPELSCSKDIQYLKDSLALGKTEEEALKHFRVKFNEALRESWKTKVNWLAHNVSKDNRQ
PI3Kδ (p110δ/p85α) Recombinant Human Protein, sequence (P27986 whole entry partner): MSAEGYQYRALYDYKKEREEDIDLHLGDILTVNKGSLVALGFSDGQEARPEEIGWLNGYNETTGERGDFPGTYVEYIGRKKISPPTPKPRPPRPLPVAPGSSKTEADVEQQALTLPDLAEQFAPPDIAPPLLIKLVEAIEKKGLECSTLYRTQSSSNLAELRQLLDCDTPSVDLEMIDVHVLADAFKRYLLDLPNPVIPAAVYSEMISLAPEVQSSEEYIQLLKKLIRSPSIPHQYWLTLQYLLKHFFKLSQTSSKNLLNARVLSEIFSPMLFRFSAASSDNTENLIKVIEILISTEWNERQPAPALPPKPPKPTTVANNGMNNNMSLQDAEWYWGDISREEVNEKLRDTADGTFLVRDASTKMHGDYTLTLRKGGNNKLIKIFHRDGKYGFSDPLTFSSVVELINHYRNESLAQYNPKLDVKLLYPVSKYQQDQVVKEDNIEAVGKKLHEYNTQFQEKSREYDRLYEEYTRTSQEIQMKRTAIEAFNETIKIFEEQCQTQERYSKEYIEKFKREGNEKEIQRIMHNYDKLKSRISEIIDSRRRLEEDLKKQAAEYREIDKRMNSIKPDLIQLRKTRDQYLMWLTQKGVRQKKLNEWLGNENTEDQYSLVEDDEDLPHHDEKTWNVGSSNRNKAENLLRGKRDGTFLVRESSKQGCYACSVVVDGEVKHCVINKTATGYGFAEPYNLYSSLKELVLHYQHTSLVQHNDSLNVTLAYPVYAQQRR
In short: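 Radiometric read-out: 33P-labelled PIP3 product captured on WGA SPA beads and counted, with IC50 fitted from percent activity relative to DMSO control. Enzyme (3.4 nM) was incubated 120 min at room temperature with 20 μM PIP2 and 2 μM ATP at pH 6.7, 2% DMSO.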

[3] = tested on: Phosphorylated Ribosomal Protein S6 (RPS6); experiment: THP-1 RPS6 ELISA Assay; type: cell-based, Human; conditions: THP-1 cells, read-out: PI3Kγ_THP1_RPS6_ELISA IC50
In short: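 IC50 values come from a curve of percent inhibition against log compound concentration, using phospho-RPS6 ELISA (450 nm) on THP-1 lysates. Cells were serum-starved overnight, exposed to compound for 2 h at 37 °C, then challenged 15 min with 10 nM MCP-1.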

PI3Kγ (p110γ) Recombinant Human Protein, sequence (P48736 whole entry): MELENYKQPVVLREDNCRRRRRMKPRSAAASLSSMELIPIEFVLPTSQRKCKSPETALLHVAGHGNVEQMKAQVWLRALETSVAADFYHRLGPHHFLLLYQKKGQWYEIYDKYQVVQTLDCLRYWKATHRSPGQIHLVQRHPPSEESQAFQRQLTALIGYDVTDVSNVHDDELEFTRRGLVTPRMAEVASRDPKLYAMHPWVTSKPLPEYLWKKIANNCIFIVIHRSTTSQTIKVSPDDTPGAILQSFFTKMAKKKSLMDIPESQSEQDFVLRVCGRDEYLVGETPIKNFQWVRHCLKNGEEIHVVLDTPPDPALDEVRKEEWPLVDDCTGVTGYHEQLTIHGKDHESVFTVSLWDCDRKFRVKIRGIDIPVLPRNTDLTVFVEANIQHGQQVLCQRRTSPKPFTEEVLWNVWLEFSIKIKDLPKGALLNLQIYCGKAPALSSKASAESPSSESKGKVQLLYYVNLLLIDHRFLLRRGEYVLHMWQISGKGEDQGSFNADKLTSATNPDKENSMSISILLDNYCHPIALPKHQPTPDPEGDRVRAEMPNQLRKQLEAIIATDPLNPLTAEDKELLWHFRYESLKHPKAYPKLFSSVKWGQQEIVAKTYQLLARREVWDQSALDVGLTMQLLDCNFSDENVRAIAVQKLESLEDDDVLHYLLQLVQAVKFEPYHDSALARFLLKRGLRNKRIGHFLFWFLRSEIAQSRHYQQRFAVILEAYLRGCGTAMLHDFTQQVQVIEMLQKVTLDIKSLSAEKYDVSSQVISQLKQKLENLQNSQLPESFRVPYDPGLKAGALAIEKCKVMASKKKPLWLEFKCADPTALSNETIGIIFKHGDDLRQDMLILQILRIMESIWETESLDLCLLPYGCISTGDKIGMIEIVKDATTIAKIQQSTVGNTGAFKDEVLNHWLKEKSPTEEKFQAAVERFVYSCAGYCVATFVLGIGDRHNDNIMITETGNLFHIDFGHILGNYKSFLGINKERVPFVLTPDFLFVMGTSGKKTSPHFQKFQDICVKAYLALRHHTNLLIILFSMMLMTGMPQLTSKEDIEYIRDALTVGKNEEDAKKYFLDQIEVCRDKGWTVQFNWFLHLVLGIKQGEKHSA

Compound | pIC50 [1] | pIC50 [2] | pIC50 [3] | pIC50 ([3]; Homo sapiens)
Cc1ccc(S(=O)(=O)NC23CCC(CC#N)(C2)C3)cc1-c1cnc2c(N)ncnn12 [Example 108, 3-(4-Aminoimidazo[1,2-f][1,2,4]triazin-7-yl)-N-(4-(cyanomethyl)bicyclo[2.1.1]hexan-1-yl)-4-methylbenzenesulfonamide trifluoroacetate salt] | > 7.00 | 6.30 to 7.00 | 6.30 to 7.00 | –
Cc1ccc(S(=O)(=O)NC23CCC(C(=O)O)(C2)C3)cc1-c1cnc2c(N)ncnn12 [Example 109, 4-(3-(4-Aminoimidazo[1,2-f][1,2,4]triazin-7-yl)-4-methylphenylsulfonamido)bicyclo[2.1.1]hexane-1-carboxylic acid] | > 7.00 | 5.70 to 6.30 | < 6.00 | –
Cc1ccc(S(=O)(=O)NC23CCC(C(N)=O)(C2)C3)cc1-c1cnc2c(N)ncnn12 [Example 110, 4-(3-(4-Aminoimidazo[1,2-f][1,2,4]triazin-7-yl)-4-methylphenylsulfonamido)bicyclo[2.1.1]hexane-1-carboxamide trifluoroacetate salt] | > 7.00 | 6.30 to 7.00 | < 6.00 | –
Cc1ccc(S(=O)(=O)NC23CC(c4cnco4)(C2)C3)cc1-c1cnc2c(N)ncnn12 [Example 111, 3-(4-Aminoimidazo[1,2-f][1,2,4]triazin-7-yl)-4-methyl-N-(3-(oxazol-5-yl)bicyclo[1.1.1]pentan-1-yl)benzenesulfonamide trifluoroacetate salt] | > 7.00 | 6.30 to 7.00 | 6.30 to 7.00 | –
Cc1ccc(S(=O)(=O)NC23CC(Cn4ccnc4)(C2)C3)cc1-c1cnc2c(N)ncnn12 [Example 112, N-(3-((1H-Imidazol-1-yl)methyl)bicyclo[1.1.1]pentan-1-yl)-3-(4-aminoimidazo[1,2-f][1,2,4]triazin-7-yl)-4-methylbenzenesulfonamide trifluoroacetate salt] | > 7.00 | 6.30 to 7.00 | 6.30 to 7.00 | –
Cc1ccc(S(=O)(=O)NC23CC(Cn4cncn4)(C2)C3)cc1-c1cnc2c(N)ncnn12 [Example 113, N-(3-((1H-1,2,4-triazol-1-yl)methyl)bicyclo[1.1.]pentan-1-yl)-3-(4-aminoimidazo[1,2-f][1,2,4]triazin-7-yl)-4-methylbenzenesulfonamide trifluoroacetate salt] | > 7.00 | 5.70 to 6.30 | 6.30 to 7.00 | –
Cc1ccc(S(=O)(=O)NC23CC(c4nccs4)(C2)C3)cc1-c1cnc2c(N)ncnn12 [Example 114, 3-(4-Aminoimidazo[1,2-f][1,2,4]triazin-7-yl)-4-methyl-N-(3-(thiazol-2-yl)bicyclo[1.1.1]pentan-1-yl)benzenesulfonamide trifluoroacetate salt] | > 7.00 | 6.30 to 7.00 | 6.30 to 7.00 | –
COC(=O)NC12CC(NS(=O)(=O)c3ccc(C)c(-c4cnc5c(N)ncnn45)c3)(C1)C2 [Example 115, Methyl 3-(3-(4-aminoimidazo[1,2-f][1,2,4]triazin-7-yl)-4-methylphenylsulfonamido)bicyclo[1.1.1]pentan-1-ylcarbamate trifluoroacetate salt] | > 7.00 | 5.70 to 6.30 | 6.30 to 7.00 | –
Cc1ccc(S(=O)(=O)NC23CC(N4CCOCC4)(C2)C3)cc1-c1cnc2c(N)ncnn12 [Example 116, 3-(4-Aminoimidazo[1,2-f][1,2,4]triazin-7-yl)-4-methyl-N-(3-morpholinobicyclo[1.1.1]pentan-1-yl)benzenesulfonamide trifluoroacetate salt] | > 7.00 | 5.70 to 6.30 | 6.30 to 7.00 | –
Cc1ccc(S(=O)(=O)NC23CC(C)(C2)C3)cc1-c1cnc2c(N)ncnn12 [Example 117, 3-(4-Aminoimidazo[1,2-f][1,2,4]triazin-7-yl)-4-methyl-N-(3-methylbicyclo[1.1.1]pentan-1-yl)benzenesulfonamide] | > 7.00 | 5.70 to 6.30 | 6.30 to 7.00 | –
Cc1ccc(S(=O)(=O)N(C)C23CC(N)(C2)C3)cc1-c1cnc2c(N)ncnn12 [Example 118, N-(3-aminobicyclo[1.1.1]pentan-1-yl)-3-(4-aminoimidazo[1,2-f][1,2,4]triazin-7-yl)-N,4-dimethylbenzenesulfonamide trifluoroacetate salt] | > 7.00 | 6.30 to 7.00 | < 6.00 | –
Cc1ccc(S(=O)(=O)NCC2(CO)CCOCC2)cc1-c1cnc2c(N)ncnn12 [Example 121, 3-(4-aminoimidazo[2,1-f][1,2,4]triazin-7-yl)-N-{[4-(hydroxymethyl)tetrahydro-2H-pyran-4-yl]methyl}-4-methylbenzenesulfonamide] | 6.30 to 7.00 | < 5.70 | – | < 6.00
Cc1ccc(S(=O)(=O)NC2CCC(F)(F)CC2)cc1-c1cnc2c(N)ncnn12 [Example 122, 3-(4-aminoimidazo[2,1-f][1,2,4]triazin-7-yl)-N-(4,4-difluorocyclohexyl)-4-methylbenzenesulfonamide] | > 7.00 | 5.70 to 6.30 | – | 6.30 to 7.00
Cc1ccc(S(=O)(=O)N[C@H]2COC[C@@H]2O)cc1-c1cnc2c(N)ncnn12 [Example 123, 3-(4-aminoimidazo[2,1-f][1,2,4]triazin-7-yl)-N-[(3S,4R)-4-hydroxytetrahydrofuran-3-yl]-4-methylbenzenesulfonamide] | > 7.00 | 5.70 to 6.30 | – | 6.00 to 6.30
Cc1ccc(S(=O)(=O)N[C@H]2CC[C@](O)(C(F)(F)F)CC2)cc1-c1cnc2c(N)ncnn12 [Example 124, 3-(4-aminoimidazo[2,1-f][1,2,4]triazin-7-yl)-N-[cis-4-hydroxy-4-(trifluoromethyl)cyclohexyl]-4-methylbenzenesulfonamide] | > 7.00 | 6.30 to 7.00 | 6.30 to 7.00 | –
Cc1ccc(S(=O)(=O)N[C@H]2CC[C@H](C(C)(C)O)CC2)cc1-c1cnc2c(N)ncnn12 [Example 125, 3-(4-aminoimidazo[2,1-f][1,2,4]triazin-7-yl)-N-[trans-4-(1-hydroxy-1-methylethyl)cyclohexyl]-4-methylbenzenesulfonamide] | > 7.00 | 5.70 to 6.30 | – | < 6.00
Cc1ccc(S(=O)(=O)NC2CC(CO)(CO)C2)cc1-c1cnc2c(N)ncnn12 [Example 126, 3-(4-aminoimidazo[2,1-f][1,2,4]triazin-7-yl)-N-[3,3-bis(hydroxymethyl)cyclobutyl]-4-methylbenzenesulfonamide] | > 7.00 | 5.70 to 6.30 | – | 6.30 to 7.00
Cc1ccc(S(=O)(=O)N[C@]2(C)CC[C@@H](O)CC2)cc1-c1cnc2c(N)ncnn12 [Example 127, 3-(4-aminoimidazo[2,1-f][1,2,4]triazin-7-yl)-N-(trans-4-hydroxy-1-methylcyclohexyl)-4-methylbenzenesulfonamide] | > 7.00 | 5.70 to 6.30 | 6.30 to 7.00 | –
Cc1ccc(S(=O)(=O)N2CC(CO)C2)cc1-c1cnc2c(N)ncnn12 [Example 128, (1-((3-(4-aminoimidazo[2,1-f][1,2,4]triazin-7-yl)-4-methylphenyl)sulfonyl)azetidin-3-yl)methanol] | > 7.00 | 6.30 to 7.00 | – | 6.30 to 7.00
Cc1ccc(S(=O)(=O)NCCN2CCS(=O)(=O)CC2)cc1-c1cnc2c(N)ncnn12 [Example 129, 3-(4-aminoimidazo[2,1-f][1,2,4]triazin-7-yl)-N-(2-(1,1-dioxidothiomorpholino)ethyl)-4-methylbenzenesulfonamide] | > 7.00 | 6.30 to 7.00 | – | > 7.00
Cc1ccc(S(=O)(=O)NCC2CCC(F)(F)CC2)cc1-c1cnc2c(N)ncnn12 [Example 130, 3-(4-aminoimidazo[2,1-f][1,2,4]triazin-7-yl)-N-((4,4-difluorocyclohexyl)methyl)-4-methylbenzenesulfonamide] | > 7.00 | 5.70 to 6.30 | – | 6.00 to 6.30
Cc1ccc(S(=O)(=O)N2CC(F)C2)cc1-c1cnc2c(N)ncnn12 [Example 131, 7-(5-((3-fluoroazetidin-1-yl)sulfonyl)-2-methylphenyl)imidazo[2,1-f][1,2,4]triazin-4-amine] | 6.30 to 7.00 | 5.70 to 6.30 | – | < 6.00
Cc1ccc(S(=O)(=O)NC2CC(F)(F)C2)cc1-c1cnc2c(N)ncnn12 [Example 132, 3-(4-aminoimidazo[2,1-f][1,2,4]triazin-7-yl)-N-(3,3-difluorocyclobutyl)-4-methylbenzenesulfonamide] | > 7.00 | 6.30 to 7.00 | – | 6.30 to 7.00
Cc1ccc(S(=O)(=O)N[C@H]2CC[C@@](C)(O)CC2)cc1-c1cnc2c(N)ncnn12 [Example 133, 3-(4-aminoimidazo[2,1-f][1,2,4]triazin-7-yl)-N-((1S,4S)-4-hydroxy-4-methylcyclohexyl)-4-methylbenzenesulfonamide] | > 7.00 | 5.70 to 6.30 | < 6.00 | –
Cc1ccc(S(=O)(=O)NCC2(F)CCOCC2)cc1-c1cnc2c(N)ncnn12 [Example 134, 3-(4-aminoimidazo[2,1-f][1,2,4]triazin-7-yl)-N-((4-fluorotetrahydro-2H-pyran-4-yl)methyl)-4-methylbenzenesulfonamide] | > 7.00 | 5.70 to 6.30 | – | 6.30 to 7.00
